Results: publication PMC8929351 (Pharmacology Research & Perspectives, 2022)
“Also recorded” adds a separate entry of the source.

Key:
[1] = target: human µ receptor wild‐type (WT) (Homo sapiens, UniProt P35372); test: cell-based; type: cell-based
rat µ receptor [2] = conditions: cited from earlier work
GIRK channels = conditions: 100 µM; cells clamped at −60 mV; cited from earlier work
[3] = tapentadol‐related fatality; cited from earlier work
[4] = test system: noradrenaline transporter; conditions: read-out: EC50 to inhibit noradrenaline transporter; LC neurons; cited from earlier work
human µ receptor A6V = human µ receptor A6V (Homo sapiens, UniProt P35372, A6V); test: cell-based; type: cell-based
Chain of human µ receptor A6V (P35372 whole entry A6V): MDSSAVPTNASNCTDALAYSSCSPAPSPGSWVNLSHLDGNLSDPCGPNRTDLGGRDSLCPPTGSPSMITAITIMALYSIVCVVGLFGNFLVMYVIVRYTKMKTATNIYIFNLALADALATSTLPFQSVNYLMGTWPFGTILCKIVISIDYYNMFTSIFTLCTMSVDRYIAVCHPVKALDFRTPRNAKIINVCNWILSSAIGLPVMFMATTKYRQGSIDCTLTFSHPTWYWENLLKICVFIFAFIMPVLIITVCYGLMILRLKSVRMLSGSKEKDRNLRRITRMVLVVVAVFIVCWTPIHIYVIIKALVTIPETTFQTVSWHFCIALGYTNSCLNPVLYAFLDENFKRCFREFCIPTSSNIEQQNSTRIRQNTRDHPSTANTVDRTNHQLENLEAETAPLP

human µ receptor = conditions: GTPγS binding; cited from earlier work
Somatostatin receptors = type: cell-based, Mouse; conditions: 30 µM tapentadol; SRIF 100 nM; AtT20 WT cells
GIRK1/2 channel = target: T1, GIRK1/2 channel (Mus musculus, UniProt P48542+P63250); type: cell-based; conditions: 30 µM tapentadol, AtT20 WT cells
T1 sequence (P63250 1-501): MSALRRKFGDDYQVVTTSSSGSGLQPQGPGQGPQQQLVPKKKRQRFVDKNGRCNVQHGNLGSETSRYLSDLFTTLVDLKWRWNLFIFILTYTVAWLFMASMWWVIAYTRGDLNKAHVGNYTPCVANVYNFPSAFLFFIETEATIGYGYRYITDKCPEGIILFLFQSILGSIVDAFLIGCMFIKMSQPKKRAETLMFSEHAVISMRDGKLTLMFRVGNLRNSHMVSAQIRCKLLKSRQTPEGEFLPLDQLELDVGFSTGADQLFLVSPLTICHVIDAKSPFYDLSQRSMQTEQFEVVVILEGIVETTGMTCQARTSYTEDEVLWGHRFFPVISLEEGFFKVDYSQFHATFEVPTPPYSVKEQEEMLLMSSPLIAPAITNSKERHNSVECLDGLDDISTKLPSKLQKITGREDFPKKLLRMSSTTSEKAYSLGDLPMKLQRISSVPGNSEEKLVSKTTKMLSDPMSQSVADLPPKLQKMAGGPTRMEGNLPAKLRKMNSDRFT
T1 sequence (P48542 1-425): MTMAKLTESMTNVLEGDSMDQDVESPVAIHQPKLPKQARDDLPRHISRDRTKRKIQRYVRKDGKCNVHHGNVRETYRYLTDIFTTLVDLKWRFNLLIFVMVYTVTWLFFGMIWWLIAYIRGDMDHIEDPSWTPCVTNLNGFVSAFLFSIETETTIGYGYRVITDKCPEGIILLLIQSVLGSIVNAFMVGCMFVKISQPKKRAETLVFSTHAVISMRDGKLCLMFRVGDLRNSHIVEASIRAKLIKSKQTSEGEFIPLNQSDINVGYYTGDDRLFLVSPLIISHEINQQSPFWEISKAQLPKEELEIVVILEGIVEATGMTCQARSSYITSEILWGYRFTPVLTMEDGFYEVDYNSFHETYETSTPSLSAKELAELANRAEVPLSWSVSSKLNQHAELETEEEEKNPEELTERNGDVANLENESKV

OPRM1 knock‐out mice = conditions: dose highly effective in wild‐type mouse; cited from earlier work
human µ receptor N40D = human µ receptor N40D (Homo sapiens, UniProt P35372, N40D); test: cell-based; type: cell-based
Chain of human µ receptor N40D (P35372 whole entry N40D): as the sequence (P35372 whole entry A6V) above, with V6A, N40D counted along it

rat µ receptor [5] = conditions: cited from earlier work; remark: listed apart in the source

Chain of human µ receptor wild‐type (WT) (P35372 whole entry): as the sequence (P35372 whole entry A6V) above, with V6A counted along it

SMILES | effect to activate the GIRK channel in variants compared to WT [1] | Operational tau (rat µ receptor [2]) | Operational tau [1] | blockage of GIRK channels (GIRK channels) | serum concentration [3] | EC50 [4] | Kd (human µ receptor A6V) | Relative tau (intrinsic efficacy relative to DAMGO) (human µ receptor A6V; A6V, AtT20 cells, operational model, β‐CNA 100 nM 20 min, mean ± SEM) | in vitro efficacy (human µ receptor) | effect on response of SRIF (Somatostatin receptors) | response at the highest concentration compared with plateau ([1]; 30 µM, undepleted conditions) | Relative tau (intrinsic efficacy relative to DAMGO) ([1]; WT, AtT20 cells, operational model, β‐CNA 100 nM 20 min, mean ± SEM) | Kd ([1]; pKA, WT, operational (functional) affinity) | effect on response of ML297 (GIRK1/2 channel) | analgesic effect (OPRM1 knock‐out mice) | Kd (human µ receptor N40D) | Relative tau (intrinsic efficacy relative to DAMGO) (human µ receptor N40D; N40D, AtT20 cells, operational model, β‐CNA 100 nM 20 min, mean ± SEM) | intrinsic activity (rat µ receptor [5]; GIRK currents, rat LC neurons) | EC50 (rat µ receptor [5]; read-out: EC50 to activate µ receptor, LC neurons)
C[C@@H](NC(=O)[C@@H](N)Cc1ccc(O)cc1)C(=O)NCC(=O)N(C)[C@@H](Cc1ccccc1)C(=O)NCCO [DAMGO, Tyr‐D‐Ala‐Gly‐N‐MePhe‐Gly‐ol acetate] | not different | 28.5 ± 1.1 | – | – | – | – | – | – | – | – | – | – | – | – | – | – | – | – | –
COc1ccc2c3c1O[C@H]1C(=O)CC[C@@]4(O)[C@@H](C2)N(C)CC[C@]314 [Oxycodone] | – | 5.1 ± 0.2 | 13.9 ± 2 | – | – | – | – | – | – | – | – | – | – | – | – | – | – | – | –
CC[C@@H](c1cccc(O)c1)[C@@H](C)CN(C)C [Tapentadol] | – | – | – | no blockage of GIRK channels | 3.5 to 25 µM | 2.3 µM | 4.47 µM | 0.04 ± 0.01 | same efficacy as morphine | significant reduction; also recorded: decreased the maximal response | smaller response | 0.05 ± 0.01 | 3.98 µM | significant reduction; also recorded: decreased the maximal response | reduced yet significant analgesia | 3.98 µM | 0.05 ± 0.02 | lower intrinsic activity than morphine and oxycodone | 1.8 µM
